Data reported in publication PMC5344255, “Design, Synthesis and Biochemical Evaluation of Novel Selective Estrogen Receptor Ligand Conjugates Incorporating an Endoxifen-Combretastatin Hybrid Scaffold” (Biomedicines, 2016).
“And” between values parts separate entries of the source, which are not always exact repeats. Equal values may be shown once.

Assays:
[1] = test system: MCF-7 human breast cancer cells; experiment: Lactate dehydrogenase (LDH) cytotoxicity assay in MCF-7; assay type: cell-based; conditions: % cell lysis at 10 µM
Protocol: (§1) In this assay, the release of cytoplasmic lactate dehydrogenase (LDH) is used as a measure of cell lysis. MCF-7 and MDA-MB-231 cells were seeded at a density of 1 × 10^4 cells/well in a 96-well plate and incubated for 24 h. The cells were then dosed with 2 μL volumes of the test compounds, over the concentration range 1 nM–50 μM. Cytotoxicity was determined using the CytoTox 96 nonradioactive cytotoxicity assay (Promega, Madison, WI, USA) following the manufacturer’s protocol.

[2] = test system: MCF-7 human breast cancer cells; experiment: MTT assay for antiproliferative effects in MCF-7; assay type: cell-based; conditions: Homo sapiens, MCF7, MCF-7, MTT assay
Protocol: (§2) The human breast carcinoma cell line, MCF-7, was purchased from the European Collection of Animal Cell Cultures (ECACC). The cells were maintained in MCF-7 complete medium; consisting of Eagle’s Minimum Essential Medium (MEM) supplemented with 10% (v/v) Foetal Bovine Serum (FBS), 2 mM L-glutamine, 100 μg/mL penicillin/streptomycin and 1% (v/v) non-essential amino acids. Cell cultures were maintained at 37 °C under a humidified atmosphere of 5% CO2/95% O2. The human breast carcinoma cell line, MDA, was purchased from the European Collection of Animal Cell Cultures (ECACC). The cells were maintained in MDA complete medium; consisting of Dulbecco’s Modified Eagle’s Medium (D-MEM) supplemented with 10% (v/v) Foetal Bovine Serum (FBS), 2 mM L-glutamine, 100 μg/mL penicillin/streptomycin. Cell cultures were maintained at 37 °C under a humidified atmosphere of 5% CO2/95% O2. The MTT assay was performed according to the reported protocol. The tetrazolium salt, 3-(4,5-dimethylthiazol-2-yl)-2,5-diphenyltetrazolium bromide (MTT) is taken up only by metabolically active cells and cleaved to form a formazan dye by mitochondrial dehydrogenases. Assays where repeated in three experiments performed in triplicate (unless otherwise stated) and reported results represent the mean value ± standard error mean. Graphs of percentage cell viability versus concentration of the subject compound were processed using PRISM [31].

human ERα = target: T1, human ERα (Homo sapiens, UniProt P03372); experiment: Estrogen receptor fluorescence polarisation competitive binding assay, ERα; conditions: for IC50: competitive binding, fluoromone ligand; for Selectivity (α/β): ratio of ER binding IC50 values
T1 construct: purchased Invitrogen; host or cells: baculovirus expression system
T1 sequence (P03372 1-595): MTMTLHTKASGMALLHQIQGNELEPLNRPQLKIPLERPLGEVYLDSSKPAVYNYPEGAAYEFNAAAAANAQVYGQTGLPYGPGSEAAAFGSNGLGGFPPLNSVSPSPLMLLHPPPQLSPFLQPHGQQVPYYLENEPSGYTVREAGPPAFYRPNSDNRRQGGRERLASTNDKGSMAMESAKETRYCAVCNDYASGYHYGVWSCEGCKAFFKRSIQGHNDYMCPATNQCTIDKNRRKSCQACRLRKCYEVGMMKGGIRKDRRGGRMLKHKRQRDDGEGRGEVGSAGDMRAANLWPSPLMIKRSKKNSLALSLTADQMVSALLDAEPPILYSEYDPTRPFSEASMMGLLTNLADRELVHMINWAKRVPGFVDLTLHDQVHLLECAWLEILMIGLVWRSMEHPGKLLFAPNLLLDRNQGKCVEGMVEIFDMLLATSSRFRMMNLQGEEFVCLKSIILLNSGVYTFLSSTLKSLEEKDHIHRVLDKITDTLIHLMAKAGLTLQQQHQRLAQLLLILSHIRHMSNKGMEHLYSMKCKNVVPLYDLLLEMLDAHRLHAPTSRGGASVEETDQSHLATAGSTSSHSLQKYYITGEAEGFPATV

human ERβ = target: T2, human ERβ (Homo sapiens, UniProt Q92731); experiment: Estrogen receptor fluorescence polarisation competitive binding assay, ERβ; conditions: fluoromone ligand
T2 construct: purchased Invitrogen; host or cells: baculovirus expression system

[3] = test system: MDA-MB-231 human breast cancer cells; experiment: MTT assay for antiproliferative effects in MDA-MB-231; assay type: cell-based; conditions: MDA-MB-231, MTT assay
Protocol: as §2, with “Cell cultures were maintained at 37 °C under a humidified atmosphere of 5% CO2/95% O2.” left out, “Assays where repeated in three experiments performed in triplicate (unless otherwise stated) and reported results represent the mean value ± standard error mean.” left out

[4] = HPLC stability study in phosphate buffer; assay type: physicochemical; conditions: pH values in the range 4–9
Protocol: Analytical high-performance liquid chromatography (HPLC) stability studies were performed using a Symmetry® column (C18, 5 µm, 4.6 × 150 mm), a Waters 2487 Dual Wavelength Absorbance detector, a Waters 1525 binary HPLC pump and a Waters 717 plus Autosampler (Waters Corporation, Milford, MA, USA). Samples were detected at wavelength of 254 nm. All samples were analysed using acetonitrile (80%):water (20%) as the mobile phase over 10 min and a flow rate of 1 mL/min. Stock solutions are prepared by dissolving 5mg of compound in 10 mL of mobile phase. Phosphate buffers at the desired pH values (4, 7.4, and 9) were prepared in accordance with the British Pharmacopoeia monograph 2015. 30 µL of stock solution was diluted with 1 mL of appropriate buffer, shaken and injected immediately. Samples were withdrawn and analysed at time intervals of t = 0 min, 5 min, 30 min, 60 min, 90 min, 120 min, 24 h and 48 h.

[5] = test system: MDA-MB-231 human breast cancer cells; experiment: Lactate dehydrogenase (LDH) cytotoxicity assay in MDA-MB-231; assay type: cell-based; conditions: % cell lysis at 10 μM
Protocol: as §1

[6] = mean of at least three experiments in triplicate

T2 sequence (Q92731 whole entry): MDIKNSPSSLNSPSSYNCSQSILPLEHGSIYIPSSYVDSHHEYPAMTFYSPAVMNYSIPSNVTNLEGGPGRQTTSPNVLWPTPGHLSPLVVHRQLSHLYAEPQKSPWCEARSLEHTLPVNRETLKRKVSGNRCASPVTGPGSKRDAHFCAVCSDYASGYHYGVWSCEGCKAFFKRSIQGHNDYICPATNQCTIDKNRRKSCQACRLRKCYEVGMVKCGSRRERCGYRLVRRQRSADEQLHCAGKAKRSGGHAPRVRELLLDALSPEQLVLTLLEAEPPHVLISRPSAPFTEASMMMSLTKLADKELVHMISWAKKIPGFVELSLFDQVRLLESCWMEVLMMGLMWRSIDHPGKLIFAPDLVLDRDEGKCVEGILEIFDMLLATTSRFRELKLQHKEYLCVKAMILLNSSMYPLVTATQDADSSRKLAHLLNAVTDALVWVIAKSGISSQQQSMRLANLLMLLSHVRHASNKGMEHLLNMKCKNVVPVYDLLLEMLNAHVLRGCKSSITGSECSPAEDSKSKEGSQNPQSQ

## CCC(=C(c1ccc(O)cc1)c1ccc(OCCNC)cc1)c1ccccc1 [Compound 11, 4-{1-[4-(2-Methylaminoethoxy)phenyl]-2-phenylbut-1-enyl}phenol, reference compound]
[1]
  % Cell Death at 10 μM: 23%
[2]; [6]
  IC50: 29 nM
[2]; values in nM
  IC50: 0.029 nM
Human ERα
  IC50: 47 nM
  Selectivity (α/β): 2.52
Human ERβ
  IC50: 118 nM

## CCC(=C(c1ccc(O)cc1)c1ccc(OCCNC)cc1)c1ccc(O)cc1 [Compound 12, 4-(1-(4-(2-(Methylamino)ethoxy)phenyl)-2-(4-hydroxyphenyl)but-1-enyl)phenol]
[1]
  % Cell Death at 10 μM: 11%
[2]; [6]
  IC50: 28 nM
Human ERα
  IC50: 44.1 nM and 44 nM
  Selectivity (α/β): 0.90
Human ERβ
  IC50: 39.7 nM and 40 nM

## CCC(=C(c1ccc(O)cc1)c1ccc(OCCN(C)C(=O)/C(=C/c2cc(OC)c(OC)c(OC)c2)c2ccc(OC)cc2)cc1)c1ccccc1 (mixture of isomers) [Compound 31, (E)-N-(2-{4-[(E/Z)-1-(4-Hydroxyphenyl)-2-phenylbut-1-enyl]phenoxy}ethyl)-2-(4-methoxyphenyl)-N-methyl-3-(3,4,5-trimethoxyphenyl) acrylamide]
[1]
  % Cell Death at 10 μM: 1%
[2]; [6]
  IC50: 2080 nM
[3]
  IC50: 51000 nM
[4]
  half-life at 14.6 µg/mL: > 24 h
[5]
  % Cell Death at 10 μM: 0%
